Measurements from ChEMBL document CHEMBL1148347, “Identification of non-phosphate-containing small molecular weight inhibitors of the tyrosine kinase p56 Lck SH2 domain via in silico screening against the pY + 3 binding site” (J Med Chem, 2004).
Active and inactive are the calls of the source. No cut-off for these calls is given here.

Organism: Mus musculus
Test: Inhibition of [3H]-thymidine incorporation into murine mixed lymphocyte culture at 100 uM (Significant anti-proliferative activity)
Assay type: functional

SMILES	inhibition
O=C(O)CSc1cccnc1Sc1ccc(Cl)cc1	Active
O=C(NCc1cccs1)c1cccnc1SCc1cccc(Br)c1	Active
Cc1ccc(NC(=O)c2cccc(NC(=O)c3ccccc3C(=O)O)c2)cc1C	Active
Cc1ccc(NC(=O)CN2C(=O)S/C(=C\c3ccc(-c4cc(C(=O)O)ccc4C)o3)C2=O)cc1	Active
COc1ccc(-n2c(SCC(=O)Nc3ccccc3OC)nc3nnc(C)c-3c2N)cc1	Active
O=C(O)c1cccc(/N=C2\C(Cl)=C(O)OC2OC(=O)c2ccccc2)c1 (configuration not stated)	Active
Cc1ccc(C(=O)O)cc1NC(=O)CCC(=O)O	Active
O=C(O)CC1SC(N/N=C2/CCCc3ccccc32)=NC1=O (configuration not stated)	Active
COc1ccc([N+](=O)[O-])cc1CSc1nnc(N)s1	Active
O=C(O)c1ccccc1SCc1cc(O)nc(O)n1	Active
COc1ccc(OC)c(NC(=O)CCNC(=O)Cn2cnc3ccccc3c2=O)c1	Active

Molecular target: Tyrosine-protein kinase Lck (Homo sapiens, UniProt P06239)
Test: Dissociation constant for p56 Lck tyrosine kinase SH2 domain by fluorescence titration

Sequence of Tyrosine-protein kinase Lck (P06239 whole entry, the tested form may be a part): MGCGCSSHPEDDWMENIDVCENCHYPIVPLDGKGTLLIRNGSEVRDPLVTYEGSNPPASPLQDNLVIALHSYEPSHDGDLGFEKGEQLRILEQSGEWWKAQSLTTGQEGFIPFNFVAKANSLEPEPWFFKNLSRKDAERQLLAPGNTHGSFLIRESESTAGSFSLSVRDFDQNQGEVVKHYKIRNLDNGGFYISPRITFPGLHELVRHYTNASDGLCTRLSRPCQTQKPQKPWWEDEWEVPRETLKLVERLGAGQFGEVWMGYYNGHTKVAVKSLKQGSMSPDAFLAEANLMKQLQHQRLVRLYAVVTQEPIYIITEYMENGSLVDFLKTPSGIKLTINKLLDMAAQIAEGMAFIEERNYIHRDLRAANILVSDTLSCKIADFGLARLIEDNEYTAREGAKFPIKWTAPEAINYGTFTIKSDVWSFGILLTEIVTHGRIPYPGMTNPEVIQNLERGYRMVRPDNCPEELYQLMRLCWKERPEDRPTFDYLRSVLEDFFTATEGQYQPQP

SMILES	Kd
Cc1ccc(NC(=O)CN2C(=O)S/C(=C\c3ccc(-c4cc(C(=O)O)ccc4C)o3)C2=O)cc1	6 µM
